What was measured:
Test in all cases: MIC by microbroth dilution
Assay type in all cases: cell-based
[1] = test system: Staphylococcus aureus L165; conditions: 0.01% (w/v) BSA, 10^4 CFU/ml, read after 18-24 h, 37° C., Iso-Sensitest broth
Protocol: (§1) The minimal inhibitory concentration (MIC) has been determined by microbroth dilution methodology, in the presence of 0.01% (w/v) of bovine serum albumin (BSA). BSA is added to the diluent to avoid possible adherence of the compounds of the invention to the plastic surface of the microtiter wells, as disclosed also by B. Goldstein et al., Antimicrobial Agents and Chemotherapy, 37 (1993), 741-745.
(§2) Inocula were 10^4 CFU/ml, except for Propionibacterium acnes and Bacteroides fragilis (10^5 CFU/ml).
(§3) MICs were read after 18-24 h, except for Haemophilus influenzae, P. acnes, B. fragilis (48 h).
(§4) All microorganisms were incubated at 37° C.; H. influenzae in a 5% CO2 atmosphere, anaerobes in a N2 --CO2 --H2 (80:10:10) mixture; other organisms in air.
(§5) The growth media are: Oxoid Iso-Sensitest broth for staphylococci and Enterococcus faecalis); Difco Todd Hewitt broth for streptococci; Difco brain heart infusion broth+1% Difco Supplement C for H. influenzae; Difco Wilkins-Chalgren broth for anaerobes.

[2] = test system: Strept. agalactiae L310; conditions: 0.01% (w/v) BSA, 10^4 CFU/ml, read after 18-24 h, 37° C., Todd Hewitt broth
Protocol: as §1, §2, §3, §4, §5

[3] = test system: Streptococcus pyogenes L49; conditions: 0.01% (w/v) BSA, 10^4 CFU/ml, read after 18-24 h, 37° C., Todd Hewitt broth
Protocol: as §1, §2, §3, §4, §5

[4] = test system: Strept. sanguis L1721; conditions: 0.01% (w/v) BSA, 10^4 CFU/ml, read after 18-24 h, 37° C., Todd Hewitt broth
Protocol: as §1, §2, §3, §4, §5

[5] = test system: Strept. pneumoniae L44; conditions: 0.01% (w/v) BSA, 10^4 CFU/ml, read after 18-24 h, 37° C., Todd Hewitt broth
Protocol: BSA is added to the diluent to avoid possible adherence of the compounds of the invention to the plastic surface of the microtiter wells, as disclosed also by B. Goldstein et al., Antimicrobial Agents and Chemotherapy, 37 (1993), 741-745. Inocula were 10^4 CFU/ml, except for Propionibacterium acnes and Bacteroides fragilis (10^5 CFU/ml). MICs were read after 18-24 h, except for Haemophilus influenzae, P. acnes, B. fragilis (48 h). All microorganisms were incubated at 37° C.; H. influenzae in a 5% CO2 atmosphere, anaerobes in a N2 --CO2 --H2 (80:10:10) mixture; other organisms in air. The growth media are: Oxoid Iso-Sensitest broth for staphylococci and Enterococcus faecalis); Difco Todd Hewitt broth for streptococci; Difco brain heart infusion broth+1% Difco Supplement C for H. influenzae; Difco Wilkins-Chalgren broth for anaerobes.

Structure (SMILES)	MIC of the compounds, Staphylococcus aureus L165 [1] [µg/mL]	MIC of the compounds, Strept. agalactiae L310 [2] [µg/mL]	MIC of the compounds, Streptococcus pyogenes L49 [3] [µg/mL]	MIC of the compounds, Strept. sanguis L1721 [4] [µg/mL]	MIC of the compounds, Strept. pneumoniae L44 [5] [µg/mL]
CNC(=O)CC1NC(=O)c2csc(n2)-c2ccc(-c3nc(C4=NC(C(=O)N5CCCC5C(=O)NCCCN(C)C)CO4)cs3)nc2-c2csc(n2)-c2csc(n2)C(C(O)c2ccccc2)NC(=O)CNC(=O)c2nc(sc2COC)C(C(C)C)NC(=O)c2nc1sc2C (mixture of isomers) [Compound 4]	0.06	4	4	0.5	0.25
CNC(=O)CC1NC(=O)c2csc(n2)-c2ccc(-c3nc(C4=NC(C(=O)N5CCCC5C(=O)NCCN(C)C)CO4)cs3)nc2-c2csc(n2)-c2csc(n2)C(C(O)c2ccccc2)NC(=O)CNC(=O)c2nc(sc2COC)C(C(C)C)NC(=O)c2nc1sc2C (mixture of isomers) [Compound 7]	0.06	4	1	0.5	0.13
CCN(CCN(C)C)C(=O)C1CCCN1C(=O)C1COC(c2csc(-c3ccc4c(n3)-c3csc(n3)-c3csc(n3)C(C(O)c3ccccc3)NC(=O)CNC(=O)c3nc(sc3COC)C(C(C)C)NC(=O)c3nc(sc3C)C(CC(=O)NC)NC(=O)c3csc-4n3)n2)=N1 (mixture of isomers) [Compound 8]	0.06	8	4	0.5	0.25
CCN(CC)CCN(CC)C(=O)C1CCCN1C(=O)C1COC(c2csc(-c3ccc4c(n3)-c3csc(n3)-c3csc(n3)C(C(O)c3ccccc3)NC(=O)CNC(=O)c3nc(sc3COC)C(C(C)C)NC(=O)c3nc(sc3C)C(CC(=O)NC)NC(=O)c3csc-4n3)n2)=N1 (mixture of isomers) [Compound 9]	0.06	8	8	2	0.5
CNC(=O)CC1NC(=O)c2csc(n2)-c2ccc(-c3nc(C4=NC(C(=O)N5CCCC5C(=O)NCCN(C(C)C)C(C)C)CO4)cs3)nc2-c2csc(n2)-c2csc(n2)C(C(O)c2ccccc2)NC(=O)CNC(=O)c2nc(sc2COC)C(C(C)C)NC(=O)c2nc1sc2C (mixture of isomers) [Compound 11]	0.06	4	4	0.5	0.25
CNC(=O)CC1NC(=O)c2csc(n2)-c2ccc(-c3nc(C4=NC(C(=O)N5CCCC5C(=O)N(C)CC(=O)N(C)CCN(C)C)CO4)cs3)nc2-c2csc(n2)-c2csc(n2)C(C(O)c2ccccc2)NC(=O)CNC(=O)c2nc(sc2COC)C(C(C)C)NC(=O)c2nc1sc2C (mixture of isomers) [Compound 13]	0.13	8	4	1	0.5
CNC(=O)CC1NC(=O)c2csc(n2)-c2ccc(-c3nc(C4=NC(C(=O)N5CCCC5C(=O)NC(C)C(=O)N(C)CCN(C)C)CO4)cs3)nc2-c2csc(n2)-c2csc(n2)C(C(O)c2ccccc2)NC(=O)CNC(=O)c2nc(sc2COC)C(C(C)C)NC(=O)c2nc1sc2C (mixture of isomers) [Compound 14]	0.13	4	2	0.25	0.13
CNC(=O)CC1NC(=O)c2csc(n2)-c2ccc(-c3nc(C4=NC(C(=O)N5CCCC5C(=O)N(C)CCN(C)CCN(C)C)CO4)cs3)nc2-c2csc(n2)-c2csc(n2)C(C(O)c2ccccc2)NC(=O)CNC(=O)c2nc(sc2COC)C(C(C)C)NC(=O)c2nc1sc2C (mixture of isomers) [Compound 15]	0.06	16	8	2	1
CNC(=O)CC1NC(=O)c2csc(n2)-c2ccc(-c3nc(C4=NC(C(=O)N5CCCC5C(=O)N5CCN(CCCN(C)C)CC5)CO4)cs3)nc2-c2csc(n2)-c2csc(n2)C(C(O)c2ccccc2)NC(=O)CNC(=O)c2nc(sc2COC)C(C(C)C)NC(=O)c2nc1sc2C (mixture of isomers) [Compound 16]	0.13	8	4	1	0.5
CNC(=O)CC1NC(=O)c2csc(n2)-c2ccc(-c3nc(C4=NC(C(=O)N5CCCC5C(=O)N(C)CCN5CCN(C)CC5)CO4)cs3)nc2-c2csc(n2)-c2csc(n2)C(C(O)c2ccccc2)NC(=O)CNC(=O)c2nc(sc2COC)C(C(C)C)NC(=O)c2nc1sc2C (mixture of isomers) [Compound 17]	0.06	8	4	0.5	0.5
CNC(=O)CC1NC(=O)c2csc(n2)-c2ccc(-c3nc(C4=NC(C(=O)N5CCCC5C(=O)N(C)CCN5CCN(CCO)CC5)CO4)cs3)nc2-c2csc(n2)-c2csc(n2)C(C(O)c2ccccc2)NC(=O)CNC(=O)c2nc(sc2COC)C(C(C)C)NC(=O)c2nc1sc2C (mixture of isomers) [Compound 18]	0.06	8	8	2	0.5
CNC(=O)CC1NC(=O)c2csc(n2)-c2ccc(-c3nc(C4=NC(C(=O)N5CCCC5C(=O)N5CCN(CCN6CCOCC6)CC5)CO4)cs3)nc2-c2csc(n2)-c2csc(n2)C(C(O)c2ccccc2)NC(=O)CNC(=O)c2nc(sc2COC)C(C(C)C)NC(=O)c2nc1sc2C (mixture of isomers) [Compound 19]	0.06	16	0.5	2	0.25
CNC(=O)CC1NC(=O)c2csc(n2)-c2ccc(-c3nc(C4=NC(C(=O)N5CCCC5C(=O)N5CCCC5CN(C)CCN(C)C)CO4)cs3)nc2-c2csc(n2)-c2csc(n2)C(C(O)c2ccccc2)NC(=O)CNC(=O)c2nc(sc2COC)C(C(C)C)NC(=O)c2nc1sc2C (mixture of isomers) [Compound 20]	0.13	8	4	1	0.5
